Measurements from patent publication US20230113037A1 (Bayer Aktiengesellschaft, priority 2019, published 2023).
Read-outs that look alike come from different tables or passages of the source.

How the values were obtained:
AHR [1] = molecular target: T1, AHR (Homo sapiens, UniProt P35869); experiment: In vitro assay 1: antagonism in human cell line (AHR transactivation, firefly luciferase reporter, kynurenic acid prestimulated); format: cell-based; details: AHR Antagonism Human IC50 [M]
T1 construct: U87 MG glioblastoma cells (ATCC #HTB-14) endogenously expressing AHR; endogenous in cells; host or cells: U87 MG glioblastoma cells (ATCC #HTB-14)
T1 sequence (P35869 11-848): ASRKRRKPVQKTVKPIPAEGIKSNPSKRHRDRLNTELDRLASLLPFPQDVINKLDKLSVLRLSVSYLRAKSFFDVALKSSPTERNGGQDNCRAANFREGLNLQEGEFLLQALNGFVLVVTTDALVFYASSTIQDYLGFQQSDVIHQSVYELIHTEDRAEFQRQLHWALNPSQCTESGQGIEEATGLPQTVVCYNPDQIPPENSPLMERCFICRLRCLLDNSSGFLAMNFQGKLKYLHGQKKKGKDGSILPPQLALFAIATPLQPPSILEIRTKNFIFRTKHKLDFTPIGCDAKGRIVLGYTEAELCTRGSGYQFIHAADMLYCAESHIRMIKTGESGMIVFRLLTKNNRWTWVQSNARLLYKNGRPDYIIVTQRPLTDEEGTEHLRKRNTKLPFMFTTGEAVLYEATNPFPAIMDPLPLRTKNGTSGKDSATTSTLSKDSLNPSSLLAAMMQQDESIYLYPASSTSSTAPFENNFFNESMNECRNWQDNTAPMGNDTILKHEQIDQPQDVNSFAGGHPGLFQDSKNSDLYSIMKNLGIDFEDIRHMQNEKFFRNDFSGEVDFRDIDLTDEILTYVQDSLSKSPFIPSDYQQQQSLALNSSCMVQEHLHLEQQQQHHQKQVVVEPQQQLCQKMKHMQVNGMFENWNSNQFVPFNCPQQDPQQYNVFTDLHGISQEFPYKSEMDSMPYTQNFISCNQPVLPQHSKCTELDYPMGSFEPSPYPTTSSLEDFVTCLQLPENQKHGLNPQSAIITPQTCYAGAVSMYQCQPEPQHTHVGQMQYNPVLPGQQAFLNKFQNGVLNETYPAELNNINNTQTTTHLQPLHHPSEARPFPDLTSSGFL
In short: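 Antagonism measured as loss of kynurenic acid-driven firefly luciferase from DRE reporter in stably transfected U87 MG cells; constitutive Renilla signal monitors cytotoxicity. Positive/negative control normalization, staurosporine 5 μM with 150 μM kynurenic acid as inhibition control; replicates given as mean or median.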

AHR [2] = molecular target: T2, AHR (Mus musculus, UniProt P30561); experiment: In vitro assay 3: antagonism in mouse cell line (AHR transactivation, firefly luciferase reporter, kynurenic acid prestimulated); format: cell-based
T2 sequence (P30561 1-848 P471L/N533S/M589L): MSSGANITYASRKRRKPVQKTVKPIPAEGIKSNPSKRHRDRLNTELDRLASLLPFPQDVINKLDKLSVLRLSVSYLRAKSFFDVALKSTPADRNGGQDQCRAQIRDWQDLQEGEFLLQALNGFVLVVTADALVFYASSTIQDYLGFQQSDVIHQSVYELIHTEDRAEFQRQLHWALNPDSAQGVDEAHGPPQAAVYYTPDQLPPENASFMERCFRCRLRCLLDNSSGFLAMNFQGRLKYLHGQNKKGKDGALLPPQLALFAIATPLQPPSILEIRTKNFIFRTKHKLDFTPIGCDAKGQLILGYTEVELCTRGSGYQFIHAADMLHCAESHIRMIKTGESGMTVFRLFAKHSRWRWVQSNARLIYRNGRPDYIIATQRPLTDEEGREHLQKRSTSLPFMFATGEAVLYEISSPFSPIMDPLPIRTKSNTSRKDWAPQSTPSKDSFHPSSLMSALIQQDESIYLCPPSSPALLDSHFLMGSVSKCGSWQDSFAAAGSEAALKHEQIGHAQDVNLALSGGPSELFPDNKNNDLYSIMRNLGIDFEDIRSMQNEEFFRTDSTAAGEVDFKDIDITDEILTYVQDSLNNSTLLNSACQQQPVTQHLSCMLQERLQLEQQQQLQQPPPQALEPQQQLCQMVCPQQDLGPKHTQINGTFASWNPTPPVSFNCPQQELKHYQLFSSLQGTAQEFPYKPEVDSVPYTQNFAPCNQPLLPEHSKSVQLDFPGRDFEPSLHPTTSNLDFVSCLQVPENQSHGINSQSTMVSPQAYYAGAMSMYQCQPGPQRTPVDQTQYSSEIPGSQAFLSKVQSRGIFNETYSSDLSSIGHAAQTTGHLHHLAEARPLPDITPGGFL
In short: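 Kynurenic acid-prestimulated mouse reporter cells; stable AHR-inducible firefly luc construct with DRE sites in promoter. No-agonist wells = positive inhibition ctrl. Luminescence normalized to pos/neg ctrls; n>1 reported as mean or median.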

[3] = mouse Hepa 1c1c7 cells, 200 μM kynurenic acid, 20 hours, read-out: AHR Antagonism Mouse IC50
[4] = Hepa 1c1c7 cells, 200 μM kynurenic acid, 20 hours, firefly luciferase reporter, read-out: AHR Antagonism Mouse IC50

Row | SMILES | IC50 (AHR [1]) [M] | IC50 (AHR [2]; [3]) [nM] | IC50 (AHR [1]; firefly luciferase reporter) [M] | IC50 (AHR [2]; [4]) [nM] | IC50 (AHR [2]; read-out: AHR Antagonism Mouse IC50, mouse Hepa 1c1c7 cells, 200 μM kynurenic acid, 20 hours) [nM]
1 | Cn1cc(-c2nc3c4cccc(Cl)c4nc(N[C@@H]4CCCCNC4=O)n3n2)cn1 [Example 194, (3R)-3-{[7-Chloro-2-(1-methyl-1H-pyrazol-4-yl)[1,2,4]triazolo[1,5-c]quinazolin-5-yl]amino}azepan-2-one] | 1.17e-09 | 3.83 | – | – | –
2 | COc1ccc(-c2nc3c4ccccc4nc(N[C@H](C)C(=O)NCCN(C)C)n3n2)cc1 [Example 787, N-[2-(dimethylamino)ethyl]-N^2-[2-(4-methoxyphenyl)[1,2,4]triazolo[1,5-c]quinazolin-5-yl]-D-alaninamide] | – | – | 2.26e-08 | 38.2 | –
3 | CS(=N)(=O)c1ccccc1-c1nc2c3ccccc3nc(N[C@@H]3CCCCNC3=O)n2n1 (single isomer, unassigned) [Example 661] | 1.53e-07 | – | – | – | 139
4 | Cn1cc(-c2nc3c4cccc(Cl)c4nc(N[C@@H]4CNCCNC4=O)n3n2)cn1 [Example 253, (6R)-6-{[7-Chloro-2-(1-methyl-1H-pyrazol-4-yl)[1,2,4]triazolo[1,5-c]quinazolin-5-yl]amino}-1,4-diazepan-5-one] | 2.71e-08 | 36.8 | – | – | –
5 | Cc1nn(C)cc1-c1nc2c3cccc(Br)c3nc(N[C@@H]3CCCCNC3=O)n2n1 [Example 815, (3R)-3-{[7-bromo-2-(1,3-dimethyl-1H-pyrazol-4-yl)[1,2,4]triazolo[1,5-c]quinazolin-5-yl]amino}azepan-2-one] | – | – | 2.78e-10 | 1.6 | –
6 | CCn1cc(-c2nc3c4cccc(Br)c4nc(N[C@@H]4CNCCNC4=O)n3n2)cn1 [Example 980, (6R)-6-{[7-bromo-2-(1-ethyl-1H-pyrazol-4-yl)[1,2,4]triazolo[1,5-c]quinazolin-5-yl]amino}-1,4-diazepan-5-one] | – | – | 5.22e-09 | 6.35 | –
7 | COc1cccc(-c2nc3c4ccccc4nc(N[C@@H](C(N)=O)c4ccccc4)n3n2)c1 [Example 89, (2R)-2-{[2-(3-methoxyphenyl)[1,2,4]triazolo[1,5-c]quinazolin-5-yl]amino}-2-phenylacetamide] | 1.29e-08 | 12.8 | – | – | –
8 | COc1ccc(-c2nc3c4ccccc4nc(N[C@H](C)C(=O)N4CCN(C(=O)OC(C)(C)C)CC4)n3n2)cc1 [Example 882, tert-butyl 4-{N-[2-(4-methoxyphenyl)[1,2,4]triazolo[1,5-c]quinazolin-5-yl]-D-alanyl}piperazine-1-carboxylate] | – | – | 5.91e-09 | 5.13 | –
9 | COc1cccc(-c2nc3c4ccccc4nc(N[C@H](CC(C)C)C(N)=O)n3n2)c1 [Example 82, N^2-[2-(3-methoxyphenyl)[1,2,4]triazolo[1,5-c]quinazolin-5-yl]-D-leucinamide] | 8.87e-09 | 12.9 | – | – | –
10 | COC(=O)N1CCN(C(=O)[C@@H](C)Nc2nc3c(Br)cccc3c3nc(-c4cnn(C)c4)nn23)CC1 [Example 893, methyl 4-{N-[7-bromo-2-(1-methyl-1H-pyrazol-4-yl)[1,2,4]triazolo[1,5-c]quinazolin-5-yl]-D-alanyl}piperazine-1-carboxylate] | – | – | 2.65e-08 | 18.2 | –
11 | CCC[C@@H](Nc1nc2ccccc2c2nc(-c3ccc(OC)cc3OC(F)(F)F)nn12)C(=O)NC [Example 510, N^2-{2-[4-methoxy-2-(trifluoromethoxy)phenyl][1,2,4]triazolo[1,5-c]quinazolin-5-yl}-N-methyl-D-norvalinamide] | 5.39e-08 | 11.7 | – | – | –
12 | CCC[C@@H](Nc1nc2ccccc2c2nc(-c3cccc(OC(F)(F)F)c3)nn12)C(=O)NC [Example 316, N-methyl-N^2-{2-[3-(trifluoromethoxy)phenyl][1,2,4]triazolo[1,5-c]quinazolin-5-yl}-D-norvalinamide] | 2.07e-08 | 3.76 | – | – | –
13 | O=C1NCCNC[C@H]1Nc1nc2c(Br)cccc2c2nc(-c3cn[nH]c3)nn12 [Example 976, (6R)-6-{[7-bromo-2-(1H-pyrazol-4-yl)[1,2,4]triazolo[1,5-c]quinazolin-5-yl]amino}-1,4-diazepan-5-one] | – | – | 3.11e-06 | 4640 | –

Second part, led by results:

Row | IC50 (AHR [1]) [M] | IC50 (AHR [2]; [3]) [nM] | IC50 (AHR [1]; firefly luciferase reporter) [M] | IC50 (AHR [2]; [4]) [nM] | SMILES | IC50 (AHR [2]; read-out: AHR Antagonism Mouse IC50, mouse Hepa 1c1c7 cells, 200 μM kynurenic acid, 20 hours) [nM]
14 | 2.23e-06 | 3160 | – | – | O=C1NCCC[C@H]1Nc1nc2ccccc2c2nc(-c3ccncc3F)nn12 [Example 482, (3R)-3-{[2-(3-fluoropyridin-4-yl)[1,2,4]triazolo[1,5-c]quinazolin-5-yl]amino}piperidin-2-one] | –
15 | 1.45e-06 | 2170 | – | – | O=C1NCC[C@H]1Nc1nc2ccccc2c2nc(-c3ccncc3F)nn12 [Example 483, (3R)-3-{[2-(3-fluoropyridin-4-yl)[1,2,4]triazolo[1,5-c]quinazolin-5-yl]amino}pyrrolidin-2-one] | –
16 | 2.15e-09 | 21.1 | – | – | Cc1cccc2c1nc(N[C@@H]1CCCCNC1=O)n1nc(-c3cnn(C)c3)nc21 [Example 142, (3R)-3-{[7-methyl-2-(1-methyl-1H-pyrazol-4-yl)[1,2,4]triazolo[1,5-c]quinazolin-5-yl]amino}azepan-2-one] | –
17 | 1.16e-08 | 7.57 | – | – | O=C1NCCCC[C@H]1Nc1nc2ccccc2c2nc(-c3cnn(CC4CCC4)c3)nn12 [Example 597, (3R)-3-({2-[1-(cyclobutylmethyl)-1H-pyrazol-4-yl][1,2,4]triazolo[1,5-c]quinazolin-5-yl}amino)azepan-2-one] | –
18 | 3.79e-08 | 36.6 | – | – | Cc1cc(-c2nc3c4ccccc4nc(N[C@@H]4CCN(C)C4=O)n3n2)cs1 [Example 355] | –
19 | 4.5e-08 | 7.94 | – | – | O=C1NCCCC[C@@H]1Nc1nc2ccccc2c2nc(-c3ccc(Cl)cc3OC(F)(F)F)nn12 [Example 518, (3S)-3-({2-[4-chloro-2-(trifluoromethoxy)phenyl][1,2,4]triazolo[1,5-c]quinazolin-5-yl}amino)azepan-2-one] | –
20 | 1.09e-06 | 2150 | – | – | COc1ccc(-c2nc3c4ccc(C)cc4nc(N[C@@H]4CNCCNC4=O)n3n2)cc1 [Example 274, (6R)-6-{[2-(4-methoxyphenyl)-8-methyl[1,2,4]triazolo[1,5-c]quinazolin-5-yl]amino}-1,4-diazepan-5-one] | –
21 | 4.02e-07 | 287 | – | – | COc1cccc(-c2nc3c4ccccc4nc(N[C@@H](C)C(N)=O)n3n2)c1 [Example 81] | –
22 | 1.71e-06 | > 20000 | – | – | COc1cscc1-c1nc2c3ccccc3nc(N[C@@H]3CCN(C)C3=O)n2n1 [Example 337, (3R)-3-{[2-(4-methoxythiophen-3-yl)[1,2,4]triazolo[1,5-c]quinazolin-5-yl]amino}-1-methylpyrrolidin-2-one] | –
23 | 3.65e-08 | 22.2 | – | – | O=C1NCCC[C@H]1Nc1nc2ccccc2c2nc(-c3ccc(Cl)cc3OC(F)(F)F)nn12 [Example 519, (3R)-3-({2-[4-chloro-2-(trifluoromethoxy)phenyl][1,2,4]triazolo[1,5-c]quinazolin-5-yl}amino)piperidin-2-one] | –
